Reference: patent US20170348306A1, “METHODS OF TREATING CANCER” (GLAXOSMITHKLINE LLC, priority 2011, published 2017)

Columns and labels:
Assay in all cases: 6 day proliferation assay (assay 1)
Assay type in all cases: cell-based
CROAP2 = details: Homo sapiens, CRO-AP2, 144 h, 6 days, EZH2 WT, read-out: Compound A gIC50
Method: (§1) Cells were cultured in appropriate medium in flasks to 80-100% confluency. Cells were harvested, counted and plated at a pre-determined optimal seeding density ranging from 50 cells per well to 4000 cells per well depending on the growth characteristics of individual cell lines in 384-well tissue culture plates (Greiner #781090). Plates were then incubated overnight at 37° C., 5% CO2. Cells were treated with compound using a 20 point 1:2 fold dilution scheme with a final concentration of 0.15% DMSO. One column per plate contained cells treated with 0.15% DMSO only, and one column contained no cells to serve as background. Plates were incubated at 37° C., 5% CO2 for 6 days. A time zero (t0) reading was taken on the day of compound addition. To develop the plates, 25 μL of Cell Titer Glo (Promega #G7572) was added to each well and incubated at room temperature for 12 minutes. Luminescence was measured on the Tecan Safire2.
(§2) Data were analyzed using Assay Client software. Dose response curves were generated based on percent of growth compared to t0. Growth IC50 values were calculated using a 4 parameter logistic model.
(§3) In addition, further optimization of the EZH2 inhibition assay

Pfeiffer = details: Homo sapiens, 144 h, 6 days, EZH2 A677G, read-out: Compound A gIC50
Method: as §1, §2, §3

Ramos = details: Homo sapiens, 144 h, 6 days, EZH2 WT, read-out: Compound A gIC50
Method: as §1, §2, §3

MJ = details: Homo sapiens, 144 h, 6 days, EZH2 WT, read-out: Compound A gIC50
Method: as §1, §2, §3

DB = details: Homo sapiens, 144 h, 6 days, EZH2 Y641N, read-out: Compound A gIC50
Method: as §1, §2, §3

SU-DHL-10 = details: Homo sapiens, SU-DHL10, 144 h, 6 days, EZH2 Y641F, read-out: Compound A gIC50
Method: as §1, §2, §3

Hs445 = details: Homo sapiens, Hs 445, 144 h, 6 days, EZH2 WT, read-out: Compound A gIC50
Method: as §1, §2, §3

Jiyoye = details: Homo sapiens, 144 h, 6 days, EZH2 WT, read-out: Compound A gIC50
Method: as §1, §2, §3

U937 = details: Homo sapiens, U-937, 144 h, 6 days, EZH2 WT, read-out: Compound A gIC50
Method: as §1, §2, §3

REC1 = details: Homo sapiens, 144 h, 6 days, EZH2 WT, read-out: Compound A gIC50
Method: as §1, §2, §3

RL = details: Homo sapiens, 144 h, 6 days, EZH2 Y641N, read-out: Compound A gIC50
Method: as §1, §2, §3

L428 = details: Homo sapiens, L-428, 144 h, 6 days, EZH2 Y641S, read-out: Compound A gIC50
Method: as §1, §2, §3

RPMI-6666 = details: Homo sapiens, 144 h, 6 days, EZH2 WT, read-out: Compound A gIC50
Method: as §1, §2, §3

Daudi = details: Homo sapiens, 144 h, 6 days, EZH2 WT, read-out: Compound A gIC50
Method: as §1, §2, §3

Raji = details: Homo sapiens, 144 h, 6 days, EZH2 WT, read-out: Compound A gIC50
Method: as §1, §2, §3

1A2 = details: Homo sapiens, 144 h, 6 days, EZH2 WT, read-out: Compound A gIC50
Method: as §1, §2, §3

SU-DHL-4 = details: Homo sapiens, 144 h, 6 days, EZH2 Y641S, read-out: Compound A gIC50
Method: as §1, §2, §3

BC-1 = details: Homo sapiens, BC1, 144 h, 6 days, EZH2 WT, read-out: Compound A gIC50
Method: as §1, §2, §3

P3HR1 = details: Homo sapiens, P3HR-1, 144 h, 6 days, EZH2 WT, read-out: Compound A gIC50
Method: as §1, §2, §3

CA46 = details: Homo sapiens, 144 h, 6 days, EZH2 WT, read-out: Compound A gIC50
Method: as §1, §2, §3

RCK8 = details: Homo sapiens, 144 h, 6 days, EZH2 WT, read-out: Compound A gIC50
Method: as §1, §2, §3

WSU-DLCL-2 = details: Homo sapiens, WSUDLCL2, 144 h, 6 days, EZH2 Y641F, read-out: Compound A gIC50
Method: as §1, §2, §3

SKM1 = details: Homo sapiens, SKM-1, 144 h, 6 days, EZH2 Y641C, read-out: Compound A gIC50
Method: as §1, §2, §3

NAMALWA = details: Homo sapiens, 144 h, 6 days, EZH2 WT, read-out: Compound A gIC50
Method: as §1, §2, §3

JM1 = details: Homo sapiens, 144 h, 6 days, EZH2 WT, read-out: Compound A gIC50
Method: as §1, §2, §3

CROAP5 = details: Homo sapiens, CRO-AP5, 144 h, 6 days, EZH2 WT, read-out: Compound A gIC50
Method: as §1, §2, §3

OCI-LY-19 = details: Homo sapiens, OCI-LY19, 144 h, 6 days, EZH2 Y641N, read-out: Compound A gIC50
Method: as §1, §2, §3

Toledo = details: Homo sapiens, 144 h, 6 days, EZH2 WT, read-out: Compound A gIC50
Method: as §1, §2, §3

Karpass422 = details: Homo sapiens, 144 h, 6 days, EZH2 Y641N, read-out: Compound A gIC50
Method: as §1, §2, §3

DG75 = details: Homo sapiens, DG-75, 144 h, 6 days, EZH2 WT, read-out: Compound A gIC50
Method: as §1, §2, §3

HDMyZ = details: Homo sapiens, 144 h, 6 days, EZH2 WT, read-out: Compound A gIC50
Method: as §1, §2, §3

BC-2 = details: Homo sapiens, 144 h, 6 days, EZH2 WT, read-out: Compound A gIC50
Method: as §1, §2, §3

Farage = details: Homo sapiens, 144 h, 6 days, EZH2 WT, read-out: Compound A gIC50
Method: as §1, §2, §3

HT = details: Homo sapiens, 144 h, 6 days, EZH2 WT, read-out: Compound A gIC50
Method: as §1, §2, §3

DOHH2 = details: Homo sapiens, DOHH-2, 144 h, 6 days, EZH2 WT, read-out: Compound A gIC50
Method: as §1, §2, §3

BC-3 = details: Homo sapiens, 144 h, 6 days, EZH2 WT, read-out: Compound A gIC50
Method: as §1, §2, §3

SU-DHL-5 = details: Homo sapiens, 144 h, 6 days, EZH2 WT, read-out: Compound A gIC50
Method: as §1, §2, §3

HsSullan = details: Homo sapiens, 144 h, 6 days, EZH2 WT, read-out: Compound A gIC50
Method: as §1, §2, §3

Structure (SMILES): CCCc1cc(C)[nH]c(=O)c1CNC(=O)c1cc(-c2ccc(N3CCN(C)CC3)nc2)cc2c1cnn2C(C)C [Compound A, 1-(1-methylethyl)-N-[(6-methyl-2-oxo-4-propyl-1,2-dihydro-3-pyridinyl)methyl]-6-[6-(4-methyl-1-piperazinyl)-3-pyridinyl]-1H-indazole-4-carboxamide]
- IC50 (CROAP2): 11.3 µM
- IC50 (Pfeiffer): 0.189 µM
- IC50 (Ramos): 3.51 µM
- IC50 (MJ): 3.28 µM
- IC50 (DB): 9.5 µM
- IC50 (SU-DHL-10): 0.324 µM
- IC50 (Hs445): 1.57 µM
- IC50 (Jiyoye): 2.47 µM
- IC50 (U937): 7.9 µM
- IC50 (REC1): 2.91 µM
- IC50 (RL): 4.66 µM
- IC50 (L428): 3.1 µM
- IC50 (RPMI-6666): 3.1 µM
- IC50 (Daudi): 13.4 µM
- IC50 (Raji): 6.14 µM
- IC50 (1A2): 9.26 µM
- IC50 (SU-DHL-4): 14 µM
- IC50 (BC-1): 8.82 µM
- IC50 (P3HR1): 7.8 µM
- IC50 (CA46): 8.63 µM
- IC50 (RCK8): 5.56 µM
- IC50 (WSU-DLCL-2): 3.1 µM
- IC50 (SKM1): 6.16 µM
- IC50 (NAMALWA): 6.22 µM
- IC50 (JM1): 6.66 µM
- IC50 (CROAP5): 6.16 µM
- IC50 (OCI-LY-19): 4.48 µM
- IC50 (Toledo): 21.8 µM
- IC50 (Karpass422): 1.32 µM
- IC50 (DG75): 6.23 µM
- IC50 (HDMyZ): 7.21 µM
- IC50 (BC-2): 2.18 µM
- IC50 (Farage): 4.79 µM
- IC50 (HT): 3.71 µM
- IC50 (DOHH2): 6.43 µM
- IC50 (BC-3): 5.28 µM
- IC50 (SU-DHL-5): 3.44 µM
- IC50 (HsSullan): 3.94 µM
